Test results from patent USRE48461E1, “Modulation of androgen receptor expression” (Ionis Pharmaceuticals, Inc., priority 2012, dated 2021).

Assays:
Type in all cases: cell-based, human
TMPRSS2 mRNA = test: TMPRSS2 expression in VCaP cells; conditions: 48 hrs
Protocol: (§1) Cells were plated at 10,000 cells per well. […] After an incubation period of 48 hrs, RNA levels of full length AR, the V7 variant, PSA and TMPRSS2 were measured.
(§2) After an incubation period of 48 hrs, RNA levels of full length AR, the V7 variant, PSA and TMPRSS2 were measured. The data is presented in Tables 108 expressed as percent expression of gene levels compared to the untreated control.
(§3) Cells were plated at 15,000 cells per well and cultured in CSS media for 16 hours. […] After 4 hrs, 1 nM DHT was added. […] After an incubation period of 48 hrs, RNA levels of AR, PSA and TMPRSS2 were measured.

LMR20 cells = test: Proliferation of MDV3100-resistant LMR20 cells (MTT; with R1881 or DHT); conditions: 5 days
Protocol: LMR20 cells were plated at 1,500 cells per well in phenol red-free medium with charcoal-stripped fetal bovine serum (CSS), to remove any androgens from the medium (Life Technologies). […] The synthetic androgen agonist, R1881, (Takeda, A. N. et al., Mol. Pharmacol. 2007. 71: 473-82) was added on day 1 at 1 nM dose to a set of cells also treated with each of the antisense oligonucleotides. DHT was added on day 1 at a dose of 10 nM to another set of cells also treated with each of the antisense oligonucleotides. […] After a treatment period of 5 days, the proliferative ability of the cancer cells was measured by the standard MTT assay. Results are presented in Table 42 as percent inhibition of proliferation, relative to non-treated cells.

PSA mRNA [1] = test: PSA expression in LNCaP cells (complete, CSS+DHT medium); conditions: for Percent inhibition of PSA expression in LNCaP cells cultured in CSS + DHT medium: CSS + DHT (1 nM) medium, 48 hrs; for Percent inhibition of PSA expression in LNCaP cells cultured in complete medium: 48 hours
Protocol: Cells were plated at 1,000 cells per well. […] ISIS 549148 was included as a negative control. […] After an incubation period of 48 hours, RNA levels of AR, PSA and TMPRSS2 were measured.
Cells were plated at 2,000 cells per well and cultured in phenol red-free RPMI supplemented with 5% charcoal stripped serum (Gibco) media for 16 hours. […] ISIS 549148 was included as a negative control. […] After an incubation period of 4 hrs, DHT was added to the medium to a final concentration of 1 nM as indicated. RNAs were collected 48 hrs later and levels of AR, PSA and TMPRSS2 were measured. In the absence of DHT, AR expression in LNCaP cells was 95%, PSA expression was 7% and TMPRSS2 expression was 24% compared to the untreated control.

[2] = test system: prostate-specific antigen (PSA) mRNA; test: PSA mRNA levels in LMR20 cells; conditions: for PSA mRNA levels (% baseline value) after treatment with DHT / PSA mRNA levels (% baseline value) after treatment with R1881 / PSA mRNA levels (% baseline value) of cells without AR agonist treatment: LMR20 cells; for PSA mRNA levels (% baseline value) after treatment with DHT: DHT 10 nM 72 hrs; for PSA mRNA levels (% baseline value) after treatment with R1881: R1881 10 nM 72 hrs; for PSA mRNA levels (% baseline value) of cells without AR agonist treatment: no AR agonist
Protocol: LMR20 cells were plated at 1,500 cells per well in phenol red-free medium with CSS. […] Results are presented in Tables 43-45 as mRNA levels expressed as a percentage of the baseline values. mRNA levels may be lowered or increased after treatment.

PSA mRNA [3] = test: PSA expression in VCaP cells; conditions: 48 hrs
Protocol: as §1, §2, §3

AR mRNA [4] = test: AR mRNA levels in LMR20 cells (with/without DHT or R1881); conditions: for AR mRNA levels (% baseline value) after treatment with DHT / AR mRNA levels (% baseline value) after treatment with R1881 / AR mRNA levels (% baseline value) of cells without AR agonist treatment: LMR20 cells; for AR mRNA levels (% baseline value) after treatment with DHT: DHT 10 nM 72 hrs; for AR mRNA levels (% baseline value) after treatment with R1881: R1881 10 nM 72 hrs; for AR mRNA levels (% baseline value) of cells without AR agonist treatment: no AR agonist
Protocol: LMR20 cells were plated at 1,500 cells per well in phenol red-free medium with CSS.

AR mRNA [5] = test: AR RNA expression in C4-2B cells (complete, CSS+DHT medium; Example 30); conditions: 48 hrs
Protocol: Cells were plated at 1,000 cells per well. […] ISIS 549148 was included as a negative control. […] After an incubation period of 48 hrs, RNA levels of AR, PSA and TMPRSS2 were measured.
Cells were plated at 2,000 cells per well and cultured in CSS media with 1 nM DHT. […] ISIS 549148 was included as a negative control. […] After an incubation period of 48 hrs, RNA levels of AR, PSA and TMPRSS2 were measured. In the absence of DHT, AR expression in C4-2 cells was 188%, PSA expression was 43% and TMPRSS2 expression was 27% compared to the untreated control.

SMILES: CNC(=O)c1ccc(N2C(=S)N(c3ccc(C#N)c(C(F)(F)F)c3)C(=O)C2(C)C)cc1F [MDV3100, 4-(3-(4-cyano-3-(trifluoromethyl)phenyl)-5,5-dimethyl-4-oxo-2-thioxoimidazolidin-1-yl)-2-fluoro-N-methylbenzamide, reference compound]
- Percent of gene expression, TMPRSS2 (TMPRSS2 mRNA; CSS + DHT medium, 0.04 μM): 115%
- Percent of gene expression, TMPRSS2 (TMPRSS2 mRNA; CSS + DHT medium, 0.2 μM): 96%
- Percent of gene expression, TMPRSS2 (TMPRSS2 mRNA; CSS + DHT medium, 1.0 μM): 70%
- Percent of gene expression, TMPRSS2 (TMPRSS2 mRNA; CSS + DHT medium, 5.0 μM): 42%
- Percent of gene expression, TMPRSS2 (TMPRSS2 mRNA; complete medium, 0.04 μM): 131%
- Percent of gene expression, TMPRSS2 (TMPRSS2 mRNA; complete medium, 0.2 μM): 121%
- Percent of gene expression, TMPRSS2 (TMPRSS2 mRNA; complete medium, 5.0 μM): 141%
- Percent inhibition of LMR20 cell proliferation (LMR20 cells; CSS + DHT, ASO 0.04 μM): 0%
- Percent inhibition of LMR20 cell proliferation (LMR20 cells; CSS + DHT, ASO 0.20 μM): 1%
- Percent inhibition of LMR20 cell proliferation (LMR20 cells; CSS + DHT, ASO 1.0 μM): 13%
- Percent inhibition of LMR20 cell proliferation (LMR20 cells; CSS + DHT, ASO 5.0 μM): 41%
- Percent inhibition of LMR20 cell proliferation (LMR20 cells; CSS + R1881, ASO 0.04 μM): 0%
- Percent inhibition of LMR20 cell proliferation (LMR20 cells; CSS + R1881, ASO 0.20 μM): 5%
- Percent inhibition of LMR20 cell proliferation (LMR20 cells; CSS + R1881, ASO 1.0 μM): 31%
- Percent inhibition of LMR20 cell proliferation (LMR20 cells; CSS + R1881, ASO 5.0 μM): 67%
- Percent inhibition of LMR20 cell proliferation (LMR20 cells; CSS, ASO 0.04 μM): 0%
- Percent inhibition of LMR20 cell proliferation (LMR20 cells; CSS, ASO 0.20 μM): 5%
- Percent inhibition of LMR20 cell proliferation (LMR20 cells; CSS, ASO 1.0 μM): 0%
- Percent inhibition of LMR20 cell proliferation (LMR20 cells; CSS, ASO 5.0 μM): 11%
- Percent inhibition of PSA expression in LNCaP cells cultured in CSS + DHT medium (PSA mRNA [1]; 0.04 μM): 15%
- Percent inhibition of PSA expression in LNCaP cells cultured in CSS + DHT medium (PSA mRNA [1]; 0.2 μM): 38%
- Percent inhibition of PSA expression in LNCaP cells cultured in CSS + DHT medium (PSA mRNA [1]; 1 μM): 81%
- Percent inhibition of PSA expression in LNCaP cells cultured in CSS + DHT medium (PSA mRNA [1]; 5.0 μM): 82%
- Percent inhibition of PSA expression in LNCaP cells cultured in complete medium (PSA mRNA [1]; 0.04 μM): 0%
- Percent inhibition of PSA expression in LNCaP cells cultured in complete medium (PSA mRNA [1]; 0.2 μM): 35%
- Percent inhibition of PSA expression in LNCaP cells cultured in complete medium (PSA mRNA [1]; 1 μM): 84%
- Percent inhibition of PSA expression in LNCaP cells cultured in complete medium (PSA mRNA [1]; 5.0 μM): 87%
- PSA mRNA levels (% baseline value) after treatment with DHT ([2]; ASO 0.04 μM): 124 % baseline value
- PSA mRNA levels (% baseline value) after treatment with DHT ([2]; ASO 0.20 μM): 108 % baseline value
- PSA mRNA levels (% baseline value) after treatment with DHT ([2]; ASO 1.0 μM): 95 % baseline value
- PSA mRNA levels (% baseline value) after treatment with DHT ([2]; ASO 5.0 μM): 95 % baseline value
- PSA mRNA levels (% baseline value) after treatment with R1881 ([2]; ASO 0.04 μM): 84 % baseline value
- PSA mRNA levels (% baseline value) after treatment with R1881 ([2]; ASO 0.20 μM): 101 % baseline value
- PSA mRNA levels (% baseline value) after treatment with R1881 ([2]; ASO 1.0 μM): 92 % baseline value
- PSA mRNA levels (% baseline value) after treatment with R1881 ([2]; ASO 5.0 μM): 87 % baseline value
- PSA mRNA levels (% baseline value) of cells without AR agonist treatment ([2]; ASO 0.04 μM): 98 % baseline value
- PSA mRNA levels (% baseline value) of cells without AR agonist treatment ([2]; ASO 0.20 μM): 93 % baseline value
- PSA mRNA levels (% baseline value) of cells without AR agonist treatment ([2]; ASO 1.0 μM): 90 % baseline value
- PSA mRNA levels (% baseline value) of cells without AR agonist treatment ([2]; ASO 5.0 μM): 113 % baseline value
- PSA mRNA levels in LMR20 cells ([2]; with or without DHT/R1881): did not reduce either PSA or TMPRSS2 mRNA levels
- Percent of gene expression, PSA (PSA mRNA [3]; CSS + DHT medium, 0.04 μM): 90%
- Percent of gene expression, PSA (PSA mRNA [3]; CSS + DHT medium, 0.2 μM): 72%
- Percent of gene expression, PSA (PSA mRNA [3]; CSS + DHT medium, 1.0 μM): 57%
- Percent of gene expression, PSA (PSA mRNA [3]; CSS + DHT medium, 5.0 μM): 30%
- Percent of gene expression, PSA (PSA mRNA [3]; complete medium, 0.04 μM): 105%
- Percent of gene expression, PSA (PSA mRNA [3]; complete medium, 0.2 μM): 76%
- Percent of gene expression, PSA (PSA mRNA [3]; complete medium, 1.0 μM): 75%
- Percent of gene expression, PSA (PSA mRNA [3]; complete medium, 5.0 μM): 61%
- AR mRNA levels (% baseline value) after treatment with DHT (AR mRNA [4]; ASO 0.04 μM): 105 % baseline value
- AR mRNA levels (% baseline value) after treatment with DHT (AR mRNA [4]; ASO 0.20 μM): 124 % baseline value
- AR mRNA levels (% baseline value) after treatment with DHT (AR mRNA [4]; ASO 1.0 μM): 110 % baseline value
- AR mRNA levels (% baseline value) after treatment with DHT (AR mRNA [4]; ASO 5.0 μM): 143 % baseline value
- AR mRNA levels (% baseline value) after treatment with R1881 (AR mRNA [4]; ASO 0.04 μM): 94 % baseline value
- AR mRNA levels (% baseline value) after treatment with R1881 (AR mRNA [4]; ASO 0.20 μM): 107 % baseline value
- AR mRNA levels (% baseline value) after treatment with R1881 (AR mRNA [4]; ASO 1.0 μM): 115 % baseline value
- AR mRNA levels (% baseline value) of cells without AR agonist treatment (AR mRNA [4]; ASO 0.04 μM): 106 % baseline value
- AR mRNA levels (% baseline value) of cells without AR agonist treatment (AR mRNA [4]; ASO 0.20 μM): 101 % baseline value
- AR mRNA levels (% baseline value) of cells without AR agonist treatment (AR mRNA [4]; ASO 1.0 μM): 99 % baseline value
- AR mRNA levels (% baseline value) of cells without AR agonist treatment (AR mRNA [4]; ASO 5.0 μM): 92 % baseline value
- AR mRNA levels in LMR20 cells (AR mRNA [4]; with or without DHT/R1881): increased the levels of AR mRNA in cells treated with AR agonist
- Percent expression of AR (AR mRNA [5]; CSS + DHT medium, 0.04 μM): 112%
- Percent expression of AR (AR mRNA [5]; CSS + DHT medium, 0.2 μM): 144%
- Percent expression of AR (AR mRNA [5]; CSS + DHT medium, 1 μM): 165%
- Percent expression of AR (AR mRNA [5]; CSS + DHT medium, 5.0 μM): 173%
- AR expression (AR mRNA [5]; CSS+DHT medium): increased AR expression in the cells
- Percent expression of AR (AR mRNA [5]; complete medium, 0.04 μM): 108%
- Percent expression of AR (AR mRNA [5]; complete medium, 0.2 μM): 121%
- Percent expression of AR (AR mRNA [5]; complete medium, 1 μM): 157%
- Percent expression of AR (AR mRNA [5]; complete medium, 5.0 μM): 182%
- AR expression (AR mRNA [5]; complete medium): increased AR expression in the cells
